Patent publication US20120302614A1, “METHOD FOR IMPROVING CEREBRAL CIRCULATION OR TREATING A CEREBRAL BLOOD FLOW DISORDER” (OSAKA UNIVERSITY, priority 2007, published 2012)

Assays:
[1] = system: Aβ injection model (Aβ 1-40 administered intracerebroventricularly); experiment: Morris water maze tests in Aβ injection model, Test Example 2; assay type: in vivo, ddY mouse; conditions: olmesartan medoxomil 1 mg/kg/day, hydralazine 30 mg/kg/day
Experimental: The therapeutic effect of olmesartan medoxomil in Aβ injection model and the dose dependency thereof were examined according to the following experimental schedule. [Experimental Schedule]: Prior to the experiment, 8-week old male ddY mice were administered olmesartan medoxomil (0.5 mg/kg/day, 1 mg/kg/day, 3 mg/kg/day or 6 mg/kg/day) or distilled water orally for four weeks (day −28 to −1). Then, Aβ 1-40 was administered to the mice intracerebroventricularly (day 0). (Although Aβ 1-40 was administered into one of the lateral ventricles in WO 2006/059777, Aβ 1-40 was administered in Test Example 1 to both lateral ventricles with an interval of one day between two administrations. Except for this point, Aβ 1-40 administration was performed in the same manner as in WO 2006/059777.) From one week thereafter, a behavioral test to evaluate cognitive function (Morris water maze test; Morris R et al., J Neuroscience Methods 1984, 11, 47-60) was performed (day 7 to 12). As a negative control, mice which had received oral administration of distilled water for four weeks were administered Aβ 40-1 intracerebroventricularly. The administration of olmesartan medoxomil or distilled water was continued until the end of the behavioral test. Measurements were performed as described below. • Hidden platform test: A platform is placed below the water surface of a water pool 150 cm in diameter filled with white water-colored. Mice are released into the water, and the time it takes them to reach the platform is measured. This trial is performed three times a day and for five consecutive days. As they learn, mice become able to reach the platform more quickly day by day. • Visible platform test: Mice are released into the water under such conditions that they can see the platform. The time it takes them to reach the platform is measured. • Probe test: The platform is removed, and mice are released and allowed to swim freely. Those mice with good learning/memory swim in the quadrant where the platform was located searching for the platform. The time they spent in that quadrant is measured. • Annnulus crossing: The number of times mice crossed the platform in the probe test is counted. […] The dose of olmesartan medoxomil was set at a low level of 1 mg/kg/day in view of the experimental results of Test Example 1. […] As behavioral tests to assess cognitive function, Morris water maze tests were performed as in Test Example 1 (hidden platform test, visible platform test and probe test) and, in addition, an open field test was also performed. Further, long-term retention, working memory task and swimming speed were also examined in the Morris water maze tests. Measurements were performed as described below. • Open field test: A cubic box (30×30×30 cm) is used. On each X and Y bank of the open-field area, two infrared beams are attached 2 cm above the floor at a 10 cm interval. The number of successive interceptions by the subject of the two adjoining beams on each bank is counted as locomotion score. • Long-term retention: On day 12 after the completion of the hidden platform test as a water maze test, mice are released into the water and the time it takes them to reach the platform is measured. • Working memory task: The platform is transferred and fixed at a new place. Mice are given four consecutive trials at intervals of as short as 20 seconds, and the time it takes them to reach the platform is measured. […] In order to eliminate this influence, swimming speed is measured.

[2] = Blood pressure by tail-cuff method, Test Example 1; assay type: in vivo, ddY mouse
Experimental: The therapeutic effect of olmesartan medoxomil in Aβ injection model and the dose dependency thereof were examined according to the following experimental schedule. [Experimental Schedule]: Prior to the experiment, 8-week old male ddY mice were administered olmesartan medoxomil (0.5 mg/kg/day, 1 mg/kg/day, 3 mg/kg/day or 6 mg/kg/day) or distilled water orally for four weeks (day −28 to −1). Then, Aβ 1-40 was administered to the mice intracerebroventricularly (day 0). (Although Aβ 1-40 was administered into one of the lateral ventricles in WO 2006/059777, Aβ 1-40 was administered in Test Example 1 to both lateral ventricles with an interval of one day between two administrations. Except for this point, Aβ 1-40 administration was performed in the same manner as in WO 2006/059777.) From one week thereafter, a behavioral test to evaluate cognitive function (Morris water maze test; Morris R et al., J Neuroscience Methods 1984, 11, 47-60) was performed (day 7 to 12). As a negative control, mice which had received oral administration of distilled water for four weeks were administered Aβ 40-1 intracerebroventricularly. The administration of olmesartan medoxomil or distilled water was continued until the end of the behavioral test. Measurements were performed as described below. • Hidden platform test: A platform is placed below the water surface of a water pool 150 cm in diameter filled with white water-colored. Mice are released into the water, and the time it takes them to reach the platform is measured. This trial is performed three times a day and for five consecutive days. As they learn, mice become able to reach the platform more quickly day by day. • Visible platform test: Mice are released into the water under such conditions that they can see the platform. The time it takes them to reach the platform is measured. • Probe test: The platform is removed, and mice are released and allowed to swim freely. […] The time they spent in that quadrant is measured. • Annnulus crossing: The number of times mice crossed the platform in the probe test is counted. […]

CCCc1nc(C(C)(C)O)c(C(=O)OCc2oc(=O)oc2C)n1Cc1ccc(-c2ccccc2-c2nnn[nH]2)cc1 [olmesartan medoxomil, (5-methyl-2-oxo-1,3-dioxolen-4-yl)methyl 4-(1-hydroxy-1-methylethyl)-2-propyl-1-[4-[2-(tetrazol-5-yl)phenyl]phenyl]methyl-imidazole-5-carboxylate]
annulus crossings: number of platform crossings compared to Aβ 1-40 administration group ([1]; Aβ 1-40 + drug): increased | hidden platform test: time to reach the platform ([1]; Aβ 1-40 + drug): shortened through successive sessions | long-term retention: time to reach the platform compared to Aβ 1-40 administration group ([1]; day 17): shortened | spatial memory impairment and learning disability evoked by Aβ 1-40 (Morris water test, summary) [1]: significantly improved | working memory task: time to reach the platform compared to Aβ 1-40 administration group [1]: shortened | blood pressure compared to the distilled water administration group ([2]; after 4-week oral administration (day −1), olmesartan medoxomil administration groups (0.5, 1, 3, 6 mg/kg/day)): significantly lowered | blood pressure ([2]; immediately after Aβ administration (day 2) and after completion of the behavioral test (day 14)): A similar tendency was observed | blood pressure ([2]; lowest dose 0.5 mg/kg/day oral, after 4-week administration (day −1)): significant lowering
